Data set [1] deals with HUVEC. Description: Wound healing migration assay. It counts as cell-based, human. The note with it: various concentrations; 24 hours. The source says:
(§1) Cell migration is essential for ECs in angiogenesis and for cancer cells in tumor growth and metastasis. […] Cell invasion is essential for EC in angiogenesis, so we performed transwell assays to evaluate the ability of HUVEC to pass through the Matrigel and membrane barriers of the transwell in the presence of various concentrations of YLT192 or vehicle.
Figure 2 Effects of YLT192 on HUVECs proliferation, migration, invasion and tube formation. […] Cells were wounded by the pipette and then treated with various concentrations of compounds for 24 hours. Migrated cells were quantified by manual counting (50×). […] The bottom chambers of the transwells were filled with 600 μL EGM2 containing various growth factors while the top chambers were seeded with 4 × 10^4 HUVECs in EBM2 and treated with different concentrations of compounds for 24 hours. Cells invaded through the membrane were stained and quantified (100×). […] HUVECs were seeded on Matrigel layer and treated with different concentrations of compounds. HUVECs tube formation was assessed 6 hours later (50×). One representative experiment of three is shown. For (A), (B) and (C), data represent the mean ± SEM of three different experiments. Each experiment was performed in duplicate.*P < 0.05, **P < 0.01. (D) YLT192 inhibited VEGF-induced phosphorylation of VEGFR2 and its downstream signal regulator p44/42 MAPK, STAT3 and AKT in HUVECs. One representative Western blot of three is presented. Each has the expression of β-actin as internal control. The full size blots were shown in the Supplemental Figure S5 online. (E) Cellular thermal shift assay showing VEGFR2 target engagement by YLT192 in intact HUVECs. One representative Western blot of two is presented. The full size blots were shown in the Supplemental Figure S6 online. […]
(§2) HUVECs were allowed to grow into full confluence in 24-well plates and then wounded by scratching with pipette tips and washed with PBS. […] Images were taken using a ZEISS digital microscope and invading cells were counted by manual counting. […]

Data set [2] concerns HUVEC. The data set can be described thus: Transwell invasion assay. It counts as cell-based, human. The note with it: various concentrations; 24 hours; concentration-dependent.
Text: as §1
Figure 2 Effects of YLT192 on HUVECs proliferation, migration, invasion and tube formation. […] Cells were wounded by the pipette and then treated with various concentrations of compounds for 24 hours. Migrated cells were quantified by manual counting (50×). […] The bottom chambers of the transwells were filled with 600 μL EGM2 containing various growth factors while the top chambers were seeded with 4 × 10^4 HUVECs in EBM2 and treated with different concentrations of compounds for 24 hours. Cells invaded through the membrane were stained and quantified (100×). […] HUVECs were seeded on Matrigel layer and treated with different concentrations of compounds. HUVECs tube formation was assessed 6 hours later (50×). One representative experiment of three is shown. […]
as §2

The test system of data set [3] is HUVEC. The data set can be described thus: Capillary-like tube formation assay. It counts as cell-based, human. The conditions noted are these: designed concentrations; 6 hours; Matrigel. On the procedure:
To elucidate the possible mechanisms of angiogenesis inhibition, tube formation ability of ECs, which is a critical step in the process of angiogenesis, was assessed in HUVEC in vitro.
The anti-angiogenesis ability of YLT192 in vitro was evaluated using capillary tube formation assay as described previously. Briefly, 96-well plate was pre-incubated with Matrigel at 37°C for 45 minutes. Then HUVECs (2 × 10^4 cells) suspended in EGM2 medium were seeded onto the Matrigel. They were treated with various concentrations of YLT192. After 6 hours incubation at 37°C, tube formation was assessed with an OLYMPUS inverted digital camera in low power fields (50×). Vandetanib served as positive control. The assay was replicated 3 times.

For data set [4] the following is noted: cited from earlier work; for toxicities after single doses: rat, in vivo; for maximal tolerance dose (MTD): rats, ref http://www.accessdata.fda.gov/drugsatfda.

`COc1cc2c(Nc3ccc(Br)cc3F)ncnc2cc1OCC1CCN(C)CC1` [Vandetanib, reference compound]: the “HUVECs migration in wound healing assay” value with HUVEC [1] is reported as “inhibited HUVECs migration”. Besides, the “invasion of HUVECs in transwell assay” value with HUVEC [2] is “inhibted HUVECs invasion”. For the same compound, in the data set on HUVEC [3], the “tube formation of HUVEC” value is “inhibited HUVECs tube formation”.

For the compound `CCN(CC)CCNC(=O)c1c(C)[nH]c(/C=C2\C(=O)Nc3ccc(F)cc32)c1C` [sunitinib], in data set [4], the “toxicities after single doses” value is “toxicities in the gastrointestinal tract and liver”; the “maximal tolerance dose (MTD)” value is listed as 500 mg/kg.

Take `CNC(=O)c1cc(Oc2ccc(NC(=O)Nc3ccc(Cl)c(C(F)(F)F)c3)cc2)ccn1` [sorafenib]: in data set [4], the “toxicities after single doses” value is “toxicities in the gastrointestinal tract and liver”; the “maximal tolerance dose (MTD)” value was 500 mg/kg.

Source of the values: article PMC4129416, “YLT192, a Novel, Orally Active Bioavailable Inhibitor of VEGFR2 Signaling with Potent Antiangiogenic Activity and Antitumor Efficacy in Preclinical Models” (Scientific Reports, 2014).
